Our source for the Activity, inhibition and IC50 values is ChEMBL document CHEMBL5696441 (Nat Chem Biol, 2011).

The target of data set [1] is Inhibitor of nuclear factor kappa-B kinase subunit epsilon (Homo sapiens) (UniProt Q14164). In words: Inhibition of human IKKepsilon assessed as residual activity at 1 uM using RBER-GSK3 as substrate in presence of 33P-ATP by ProQinase assay relative to control.
Data set [2] has as its target Serine/threonine-protein kinase ULK3 (Homo sapiens) (UniProt Q6PHR2). In words: Inhibition of ULK3 (unknown origin) assessed as remaining activity at 1 uM by Kinome scan method relative to control.
Data set [3] addresses MAP kinase-interacting serine/threonine-protein kinase 1 (Homo sapiens) (UniProt Q9BUB5). In words: Inhibition of MKNK1 (unknown origin) assessed as remaining activity at 1 uM by Kinome scan method relative to control.
The target of a further data set is CYP3A4 (Homo sapiens, UniProt P08684). In words: Inhibition of CYP3A4 (unknown origin) at 10 uM relative to control. In kind it is ADME.
Data set [4] has as its target CDK3/Cyclin E (Homo sapiens) (UniProt P24864+Q00526). In words: Inhibition of human CDK3/CyclinE1 assessed as residual activity at 1 uM using RBER-CHKtide as substrate in presence of 33P-ATP by ProQinase assay relative to control. It counts as protein-complex assay.
The subject of data set [5] is Tyrosine-protein kinase ABL1 (Homo sapiens), P00519 [M351T]. In words: Inhibition of ABL1 M351T mutant (unknown origin) assessed as remaining activity at 1 uM by Kinome scan method relative to control.
Data set [6] has as its target Cyclin-dependent kinase-like 3 (Homo sapiens) (UniProt Q8IVW4). In words: Inhibition of CDKL3 (unknown origin) assessed as remaining activity at 1 uM by Kinome scan method relative to control.
The target in data set [7] is 5'-AMP-activated protein kinase catalytic subunit alpha-1 (Homo sapiens) (UniProt Q13131). In words: Inhibition of human AMPKalpha1 assessed as residual activity at 1 uM using RBER-CHKtide as substrate in presence of 33P-ATP by ProQinase assay relative to control.
For data set [8], the target named is Eukaryotic elongation factor 2 kinase (Homo sapiens) (UniProt O00418). In words: Inhibition of human EEF2K assessed as residual activity at 1 uM using RBER-GSK3 as substrate in presence of 33P-ATP by ProQinase assay relative to control.
The species named for the next data set is Homo sapiens. In words: Inhibition of human CDK1/CycA2 assessed as residual activity at 1 uM using RBER-CHKtide as substrate in presence of 33P-ATP by ProQinase assay relative to control.
Data set [9] can be described thus: Anti-inflammatory activity against human derived medium respond PBMC cells assessed as inhibition in stimulated IL-5 cytokine release incubated for 2 hrs in the presence of LPS/SEB/aCD28 by Luminex based sandwich immunoassay. In kind it is functional, cell-based.
The target in data set [10] is 3-phosphoinositide-dependent protein kinase 1 (Homo sapiens) (UniProt O15530). In words: Inhibition of human PDK1 assessed as residual activity at 1 uM using bio-4xCHKT as substrate in presence of 33P-ATP by ProQinase assay relative to control.
For data set [11], the target named is Rho-associated protein kinase 1 (Homo sapiens) (UniProt Q13464). In words: Inhibition of ROCK1 (unknown origin) assessed as remaining activity at 1 uM by Kinome scan method relative to control.
Data set [12] addresses Tyrosine-protein kinase CSK (Homo sapiens) (UniProt P41240). In words: Inhibition of human CSK assessed as residual activity at 1 uM using polyEY as substrate in presence of 33P-ATP by ProQinase assay relative to control.
The target in data set [13] is Casein kinase I isoform delta (Homo sapiens) (UniProt P48730). In words: Inhibition of human CK1delta assessed as residual activity at 1 uM using casein as substrate in presence of 33P-ATP by ProQinase assay relative to control.
Sequence of Casein kinase I isoform delta (Homo sapiens) (P48730 whole entry, looked up, canonical isoform): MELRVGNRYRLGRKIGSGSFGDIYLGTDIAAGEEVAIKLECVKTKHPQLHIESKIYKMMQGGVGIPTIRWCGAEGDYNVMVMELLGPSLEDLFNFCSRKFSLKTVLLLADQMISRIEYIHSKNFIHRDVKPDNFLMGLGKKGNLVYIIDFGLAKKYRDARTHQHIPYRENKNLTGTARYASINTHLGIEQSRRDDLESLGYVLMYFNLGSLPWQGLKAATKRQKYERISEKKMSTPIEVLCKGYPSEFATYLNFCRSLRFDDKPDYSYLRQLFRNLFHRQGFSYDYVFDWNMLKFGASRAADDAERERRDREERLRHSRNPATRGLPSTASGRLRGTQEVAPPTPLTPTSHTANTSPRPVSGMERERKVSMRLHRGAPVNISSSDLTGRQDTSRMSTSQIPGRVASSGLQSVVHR
In data set [14] the target is Homeodomain-interacting protein kinase 2 (Homo sapiens) (UniProt Q9H2X6). In words: Inhibition of human HIPK2 assessed as residual activity at 1 uM using RBER-CHKtide as substrate in presence of 33P-ATP by ProQinase assay relative to control.
Data set [15] concerns the target Insulin-like growth factor 1 receptor (Homo sapiens) (UniProt P08069). In words: Inhibition of human IGF1R assessed as residual activity at 1 uM using polyEY as substrate in presence of 33P-ATP by ProQinase assay relative to control.
The test system of data set [16] is Epidermal growth factor receptor (Homo sapiens), P00533 [UNDEFINED MUTATION]. In words: Inhibition of EGFR L747-T751del/Sins mutant (unknown origin) assessed as remaining activity at 1 uM by Kinome scan method relative to control.
Sequence of Epidermal growth factor receptor (Homo sapiens), P00533 [UNDEFINED MUTATION] (P00533 whole entry, looked up, stated change not applied): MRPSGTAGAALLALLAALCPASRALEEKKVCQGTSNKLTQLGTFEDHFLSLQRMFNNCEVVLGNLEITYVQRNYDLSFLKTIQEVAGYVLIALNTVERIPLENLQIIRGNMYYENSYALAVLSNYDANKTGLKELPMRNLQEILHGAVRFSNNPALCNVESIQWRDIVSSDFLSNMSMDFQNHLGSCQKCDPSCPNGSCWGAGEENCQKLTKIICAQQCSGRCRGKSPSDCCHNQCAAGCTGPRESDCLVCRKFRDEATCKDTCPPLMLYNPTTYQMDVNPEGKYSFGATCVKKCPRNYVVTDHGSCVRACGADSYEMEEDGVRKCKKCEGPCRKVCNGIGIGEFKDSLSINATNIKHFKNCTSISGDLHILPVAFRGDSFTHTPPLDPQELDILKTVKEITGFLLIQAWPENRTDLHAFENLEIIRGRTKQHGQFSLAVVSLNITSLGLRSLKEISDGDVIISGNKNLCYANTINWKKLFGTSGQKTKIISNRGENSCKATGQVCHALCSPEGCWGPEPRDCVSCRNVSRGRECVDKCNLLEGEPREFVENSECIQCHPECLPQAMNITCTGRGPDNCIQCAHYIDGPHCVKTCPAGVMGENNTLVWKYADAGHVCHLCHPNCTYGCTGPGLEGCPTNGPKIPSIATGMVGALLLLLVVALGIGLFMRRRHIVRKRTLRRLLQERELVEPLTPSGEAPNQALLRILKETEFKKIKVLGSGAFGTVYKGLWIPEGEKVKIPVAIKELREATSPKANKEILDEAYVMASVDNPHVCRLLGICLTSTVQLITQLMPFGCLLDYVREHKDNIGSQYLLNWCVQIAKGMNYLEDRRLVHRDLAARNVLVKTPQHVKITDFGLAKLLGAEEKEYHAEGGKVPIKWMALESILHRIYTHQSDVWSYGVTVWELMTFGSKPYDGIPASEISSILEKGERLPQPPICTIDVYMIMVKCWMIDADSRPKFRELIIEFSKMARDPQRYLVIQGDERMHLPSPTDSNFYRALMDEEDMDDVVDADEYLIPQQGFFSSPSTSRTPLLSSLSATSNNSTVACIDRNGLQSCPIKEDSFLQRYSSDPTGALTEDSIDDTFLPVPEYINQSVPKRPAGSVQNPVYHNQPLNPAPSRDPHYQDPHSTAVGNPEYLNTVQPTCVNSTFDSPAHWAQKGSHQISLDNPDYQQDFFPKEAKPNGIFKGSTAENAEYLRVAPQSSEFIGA
In data set [17] the target is NUAK family SNF1-like kinase 2 (Homo sapiens) (UniProt Q9H093). In words: Inhibition of human SNARK assessed as residual activity at 1 uM using histone H2B as substrate in presence of 33P-ATP by ProQinase assay relative to control.
Sequence of NUAK family SNF1-like kinase 2 (Homo sapiens) (Q9H093 whole entry): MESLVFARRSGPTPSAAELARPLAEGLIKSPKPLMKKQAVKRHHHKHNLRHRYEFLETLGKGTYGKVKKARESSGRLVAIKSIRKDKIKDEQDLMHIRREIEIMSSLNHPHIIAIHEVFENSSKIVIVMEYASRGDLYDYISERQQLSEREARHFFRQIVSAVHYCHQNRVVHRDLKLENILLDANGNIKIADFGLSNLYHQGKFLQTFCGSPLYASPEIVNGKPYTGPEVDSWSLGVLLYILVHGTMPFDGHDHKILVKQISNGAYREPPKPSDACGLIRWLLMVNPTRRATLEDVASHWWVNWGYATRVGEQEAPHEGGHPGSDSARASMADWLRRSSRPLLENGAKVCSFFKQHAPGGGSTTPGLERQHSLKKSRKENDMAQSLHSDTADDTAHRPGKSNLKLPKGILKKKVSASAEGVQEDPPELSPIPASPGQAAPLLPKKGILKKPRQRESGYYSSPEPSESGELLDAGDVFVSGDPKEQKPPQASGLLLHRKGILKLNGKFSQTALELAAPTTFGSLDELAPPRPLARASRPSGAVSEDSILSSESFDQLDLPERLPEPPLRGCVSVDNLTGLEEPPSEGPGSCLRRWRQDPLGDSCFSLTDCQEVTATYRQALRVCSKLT
Data set [18] relates to Proto-oncogene tyrosine-protein kinase receptor Ret (Homo sapiens), P07949 [M918T]. In words: Inhibition of RET M918T (unknown origin) assessed as remaining activity at 1 uM by Kinome scan method relative to control.
Sequence of Proto-oncogene tyrosine-protein kinase receptor Ret (Homo sapiens), P07949 [M918T] (P07949 whole entry M918T): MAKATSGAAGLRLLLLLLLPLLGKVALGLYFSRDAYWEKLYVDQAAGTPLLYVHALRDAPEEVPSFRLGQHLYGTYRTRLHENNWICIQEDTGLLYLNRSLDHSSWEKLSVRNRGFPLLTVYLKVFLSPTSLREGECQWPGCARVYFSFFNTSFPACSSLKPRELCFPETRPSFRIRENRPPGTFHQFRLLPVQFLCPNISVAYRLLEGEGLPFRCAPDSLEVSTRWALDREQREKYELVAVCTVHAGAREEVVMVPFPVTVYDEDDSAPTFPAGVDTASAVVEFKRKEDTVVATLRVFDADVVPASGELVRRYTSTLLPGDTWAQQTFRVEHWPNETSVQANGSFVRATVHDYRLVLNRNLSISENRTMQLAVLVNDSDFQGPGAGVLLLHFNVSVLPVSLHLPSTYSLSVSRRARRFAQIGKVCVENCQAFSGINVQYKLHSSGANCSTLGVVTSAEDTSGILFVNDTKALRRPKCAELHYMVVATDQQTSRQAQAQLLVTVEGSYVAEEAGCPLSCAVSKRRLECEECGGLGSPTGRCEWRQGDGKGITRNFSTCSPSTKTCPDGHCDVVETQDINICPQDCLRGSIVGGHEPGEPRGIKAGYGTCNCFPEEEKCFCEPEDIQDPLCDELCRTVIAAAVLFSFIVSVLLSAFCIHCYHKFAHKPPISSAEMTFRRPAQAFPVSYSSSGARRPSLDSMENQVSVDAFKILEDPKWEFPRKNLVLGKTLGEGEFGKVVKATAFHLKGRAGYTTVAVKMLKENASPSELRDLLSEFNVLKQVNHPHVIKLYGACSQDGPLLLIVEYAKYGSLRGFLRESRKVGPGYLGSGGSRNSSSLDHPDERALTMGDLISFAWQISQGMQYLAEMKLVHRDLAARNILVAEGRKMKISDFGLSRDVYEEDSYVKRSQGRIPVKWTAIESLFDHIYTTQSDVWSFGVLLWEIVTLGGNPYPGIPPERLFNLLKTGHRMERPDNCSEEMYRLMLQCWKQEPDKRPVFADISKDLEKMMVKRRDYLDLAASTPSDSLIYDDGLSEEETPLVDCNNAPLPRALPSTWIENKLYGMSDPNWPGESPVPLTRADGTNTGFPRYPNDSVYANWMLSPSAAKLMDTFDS
For data set [19], the target named is T1, cGMP-dependent protein kinase 1 (Homo sapiens) (UniProt Q13976).
T1 sequence (whole entry): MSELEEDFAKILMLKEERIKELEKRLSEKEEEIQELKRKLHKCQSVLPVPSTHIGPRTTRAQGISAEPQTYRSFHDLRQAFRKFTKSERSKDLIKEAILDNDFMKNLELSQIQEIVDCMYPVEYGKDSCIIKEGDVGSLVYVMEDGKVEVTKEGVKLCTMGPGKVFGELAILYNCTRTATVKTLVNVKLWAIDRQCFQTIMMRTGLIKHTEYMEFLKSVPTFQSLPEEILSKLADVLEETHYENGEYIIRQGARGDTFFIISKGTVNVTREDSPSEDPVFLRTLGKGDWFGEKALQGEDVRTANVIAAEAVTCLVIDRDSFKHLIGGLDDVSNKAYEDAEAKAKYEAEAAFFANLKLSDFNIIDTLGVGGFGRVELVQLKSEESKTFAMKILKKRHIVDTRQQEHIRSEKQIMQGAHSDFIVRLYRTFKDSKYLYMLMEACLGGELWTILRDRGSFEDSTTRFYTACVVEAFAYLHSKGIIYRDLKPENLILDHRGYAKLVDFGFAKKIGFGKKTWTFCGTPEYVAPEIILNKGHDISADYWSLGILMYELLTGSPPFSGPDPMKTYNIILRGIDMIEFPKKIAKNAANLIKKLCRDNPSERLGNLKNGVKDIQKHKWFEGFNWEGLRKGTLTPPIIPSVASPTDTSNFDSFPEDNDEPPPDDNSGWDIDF
In words: Inhibition of human PRKG1 assessed as residual activity at 1 uM using 3xChocktide-PKC(19-31) as substrate in presence of 33P-ATP by ProQinase assay relative to control.

For data set [20], the target named is Tyrosine-protein kinase Lck (Homo sapiens) (UniProt P06239). In words: Inhibition of human LCK assessed as residual activity at 1 uM using polyEY as substrate in presence of 33P-ATP by ProQinase assay relative to control.

SMILES strings stand for the structures.

As usually defined, the inhibition is how much of the control response was suppressed. A higher inhibition goes with a response far below the control.

Sequence of Serine/threonine-protein kinase ULK3 (Homo sapiens) (Q6PHR2 whole entry): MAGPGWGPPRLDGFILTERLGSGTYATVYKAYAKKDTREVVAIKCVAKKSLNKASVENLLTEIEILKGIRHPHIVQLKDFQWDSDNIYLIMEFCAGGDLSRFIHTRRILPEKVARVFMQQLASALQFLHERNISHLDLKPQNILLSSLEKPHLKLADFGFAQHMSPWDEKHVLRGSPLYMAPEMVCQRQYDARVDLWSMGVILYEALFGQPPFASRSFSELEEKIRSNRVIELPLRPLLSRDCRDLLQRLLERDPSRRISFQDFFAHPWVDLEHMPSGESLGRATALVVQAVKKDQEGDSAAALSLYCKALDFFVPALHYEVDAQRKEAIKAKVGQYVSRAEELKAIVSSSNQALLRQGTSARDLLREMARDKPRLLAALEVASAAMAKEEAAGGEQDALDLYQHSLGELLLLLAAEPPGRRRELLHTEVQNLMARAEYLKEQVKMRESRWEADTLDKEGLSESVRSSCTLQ
Sequence of CDK3/Cyclin E (Homo sapiens) (P24864 whole entry, looked up): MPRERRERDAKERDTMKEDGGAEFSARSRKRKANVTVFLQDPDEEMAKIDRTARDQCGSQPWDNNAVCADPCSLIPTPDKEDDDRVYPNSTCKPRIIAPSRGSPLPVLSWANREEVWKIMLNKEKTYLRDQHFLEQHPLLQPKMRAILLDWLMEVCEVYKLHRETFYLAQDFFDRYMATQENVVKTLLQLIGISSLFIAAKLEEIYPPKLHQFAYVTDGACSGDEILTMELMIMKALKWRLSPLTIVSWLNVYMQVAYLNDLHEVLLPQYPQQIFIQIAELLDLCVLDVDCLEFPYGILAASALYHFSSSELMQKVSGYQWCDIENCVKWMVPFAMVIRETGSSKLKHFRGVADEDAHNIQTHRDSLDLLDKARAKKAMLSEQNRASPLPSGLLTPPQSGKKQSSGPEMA
Sequence of CDK3/Cyclin E (Homo sapiens) (Q00526 whole entry, looked up): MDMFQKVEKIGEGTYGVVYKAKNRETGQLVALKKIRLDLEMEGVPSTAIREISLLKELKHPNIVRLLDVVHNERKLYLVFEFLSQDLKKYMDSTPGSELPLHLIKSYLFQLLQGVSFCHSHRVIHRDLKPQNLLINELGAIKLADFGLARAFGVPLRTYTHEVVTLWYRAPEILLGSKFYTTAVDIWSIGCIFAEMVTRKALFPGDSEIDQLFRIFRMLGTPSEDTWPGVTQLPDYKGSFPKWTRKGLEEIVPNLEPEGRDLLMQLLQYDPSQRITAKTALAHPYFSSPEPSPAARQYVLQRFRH
Sequence of Tyrosine-protein kinase CSK (Homo sapiens) (P41240 2-450 limits assumed): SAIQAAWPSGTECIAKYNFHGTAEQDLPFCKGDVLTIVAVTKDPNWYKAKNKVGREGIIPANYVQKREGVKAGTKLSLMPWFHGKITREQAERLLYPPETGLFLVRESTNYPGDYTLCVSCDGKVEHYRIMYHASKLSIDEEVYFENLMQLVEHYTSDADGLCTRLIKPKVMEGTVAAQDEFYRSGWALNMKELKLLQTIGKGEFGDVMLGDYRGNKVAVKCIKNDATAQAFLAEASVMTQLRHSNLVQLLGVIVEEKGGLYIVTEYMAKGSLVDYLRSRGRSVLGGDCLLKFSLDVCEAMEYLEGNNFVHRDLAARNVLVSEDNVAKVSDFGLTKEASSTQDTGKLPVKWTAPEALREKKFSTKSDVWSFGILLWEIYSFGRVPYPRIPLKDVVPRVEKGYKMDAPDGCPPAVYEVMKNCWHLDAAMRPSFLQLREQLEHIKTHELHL

On to `O=C1c2ccc(Nc3ccc(F)cc3F)cc2CCc2ccc(OC[C@H](O)CO)cc21` [Skepinone-L], for which the Activity in data set [1] was determined as 103%; in data set [2], 100%; in data set [3], 99%; in [4], 96%; in [5], 100%; in data set [6] it was 78%. In addition, the Activity was 84% in [7]; 88% in [8]; 98% in the data set listed under Homo sapiens; 97% in data set [10]; 100% in [11]; 111% in data set [12]. Besides, the Activity was 98% in data set [13]; 104% in [14]; 98% in data set [15]; 98% in data set [16]; 115% in [17]; 100% in data set [18]. Also, the figures for the Activity in [19] and in data set [20] were 110% and 102%, respectively. At 10 µM the inhibition against CYP3A4 was 34%. Besides, the IC50 entry in data set [9] is listed as “Not Active”.
